Reference: patent publication US20080125432A1 (Devgen NV, priority 2004, published 2008)

Assays:
Kv1.5 = target: T1, Kv1.5 (Homo sapiens, UniProt P22460); assay: Whole-cell patch clamp in human atrial myocytes: Kv1.5 current calculated from Isus; assay type: cell-based
T1 construct: endogenous in cells; host or cells: freshly isolated human atrial myocytes
Description: (§1) The blocking profile of the compounds of the invention is determined on the following channels of the human atrial myocytes: INa, Ito, Isus and IK1 channel currents.
Human atrial myocytes: Myocytes were prepared from specimens with grossly normal anatomical aspect, excised from hearts of patients with normal P-wave electrocardiogram, undergoing bypass surgery. Human atrial sample were obtained following approval by the ethical committee. […]
(§2) Experiments were performed at room temperature (20-25° C.) for INa and at 32-34° C. for Ito, Isus, IK1. Currents were measured using the whole-cell variant of the patch clamp method. […]
After rupture of the cell membrane to enter the whole-cell mode, current amplitude and kinetics were allowed to stabilize for 3-7 min before initiating the experimental procedure. K^+ currents recorded from human atrial myocytes were elicited by a 500 ms pulse to +60 mV from a holding potential of −50 mV for Ito and Isus. Ito was measured as a peak current amplitude whereas Isus as a current present at the end of the 500 ms voltage pulse. In addition, the area under the curve, before and after compound, were measured over the course of the pulse period. […]

INa (SCN5a) = target: T2, INa (SCN5a) (Homo sapiens, UniProt Q14524); assay: Whole-cell patch clamp in human atrial myocytes: INa; assay type: cell-based; details: n = 3 cells
T2 construct: endogenous in cells; host or cells: freshly isolated human atrial myocytes (bypass-surgery patients)
T2 sequence (Q14524 whole entry): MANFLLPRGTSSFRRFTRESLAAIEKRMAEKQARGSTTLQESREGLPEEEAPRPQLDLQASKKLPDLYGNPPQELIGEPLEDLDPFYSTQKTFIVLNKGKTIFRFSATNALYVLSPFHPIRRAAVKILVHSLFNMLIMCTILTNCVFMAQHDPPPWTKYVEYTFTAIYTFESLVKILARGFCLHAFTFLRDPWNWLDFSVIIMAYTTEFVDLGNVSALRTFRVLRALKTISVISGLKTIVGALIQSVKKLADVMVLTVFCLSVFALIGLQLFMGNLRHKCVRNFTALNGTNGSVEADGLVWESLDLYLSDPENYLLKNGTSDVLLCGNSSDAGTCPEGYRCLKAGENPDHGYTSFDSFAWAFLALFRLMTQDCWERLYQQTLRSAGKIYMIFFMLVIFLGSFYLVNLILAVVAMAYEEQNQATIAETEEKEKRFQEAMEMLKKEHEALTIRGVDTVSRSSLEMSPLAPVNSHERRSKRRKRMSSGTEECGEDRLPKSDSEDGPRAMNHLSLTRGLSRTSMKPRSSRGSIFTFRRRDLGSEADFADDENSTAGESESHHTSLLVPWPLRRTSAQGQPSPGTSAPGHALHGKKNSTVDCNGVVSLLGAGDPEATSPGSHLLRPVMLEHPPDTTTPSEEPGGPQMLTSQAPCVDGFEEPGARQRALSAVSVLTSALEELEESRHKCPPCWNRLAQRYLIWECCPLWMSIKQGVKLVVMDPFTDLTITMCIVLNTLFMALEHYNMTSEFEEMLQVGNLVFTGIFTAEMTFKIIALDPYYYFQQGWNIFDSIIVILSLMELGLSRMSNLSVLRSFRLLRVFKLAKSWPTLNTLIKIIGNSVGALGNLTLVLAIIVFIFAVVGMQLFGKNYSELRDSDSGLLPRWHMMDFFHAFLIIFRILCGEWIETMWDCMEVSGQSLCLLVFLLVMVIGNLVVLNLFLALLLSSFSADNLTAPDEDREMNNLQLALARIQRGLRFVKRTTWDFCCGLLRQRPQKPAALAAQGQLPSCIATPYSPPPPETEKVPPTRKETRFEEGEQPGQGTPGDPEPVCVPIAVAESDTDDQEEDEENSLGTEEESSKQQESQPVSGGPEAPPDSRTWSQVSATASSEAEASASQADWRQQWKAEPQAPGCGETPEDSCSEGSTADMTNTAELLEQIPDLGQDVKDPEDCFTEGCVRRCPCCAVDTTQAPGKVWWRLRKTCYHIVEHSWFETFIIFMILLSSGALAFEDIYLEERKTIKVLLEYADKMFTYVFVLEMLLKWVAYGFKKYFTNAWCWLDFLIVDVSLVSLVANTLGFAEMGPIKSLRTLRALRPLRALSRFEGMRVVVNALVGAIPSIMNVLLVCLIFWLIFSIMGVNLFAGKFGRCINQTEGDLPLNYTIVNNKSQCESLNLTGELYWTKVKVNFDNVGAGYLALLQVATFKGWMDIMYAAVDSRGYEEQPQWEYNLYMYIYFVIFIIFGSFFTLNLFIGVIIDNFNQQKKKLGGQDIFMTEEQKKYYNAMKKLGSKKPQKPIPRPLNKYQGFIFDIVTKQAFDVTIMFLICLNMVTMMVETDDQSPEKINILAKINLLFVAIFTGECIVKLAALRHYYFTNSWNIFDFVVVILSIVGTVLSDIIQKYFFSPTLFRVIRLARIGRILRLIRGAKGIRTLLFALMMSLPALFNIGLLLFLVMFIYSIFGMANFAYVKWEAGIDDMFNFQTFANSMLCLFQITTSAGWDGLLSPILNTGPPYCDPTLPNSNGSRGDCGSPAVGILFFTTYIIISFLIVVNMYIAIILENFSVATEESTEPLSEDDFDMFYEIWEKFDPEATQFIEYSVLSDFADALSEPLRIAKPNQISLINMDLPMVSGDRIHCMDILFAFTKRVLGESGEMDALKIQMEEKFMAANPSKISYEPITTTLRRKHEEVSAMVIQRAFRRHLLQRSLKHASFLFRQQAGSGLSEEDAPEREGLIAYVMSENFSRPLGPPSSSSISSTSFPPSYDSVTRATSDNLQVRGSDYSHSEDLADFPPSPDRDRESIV
Description: as §1
Human atrial myocytes: Myocytes were prepared from specimens with grossly normal anatomical aspect, excised from hearts of patients with normal P-wave electrocardiogram, undergoing bypass surgery. Human atrial sample were obtained following approval by the ethical committee. Atrial tissue samples were quickly immersed in a cardioplegic solution (in mM: 50 KH2PO4, 8 MgSO4, 10 NaHCO3, 5 adenosine, 25 taurine, 140 glucose, and 100 mannitol, titrated to a pH of 7.4 and bubbled with 100% O2 at 0-4° C.) and rapidly delivered to the laboratory. The tissue was then minced onto 0.5-1 mm^2 chunks within 30 min after the excision procedure and transferred to a 50 ml conical tube containing wash solution deprived of Ca^2+ (in mM: 137 NaCl, KH2PO4, 1 MgSO4, 10 taurine, 10 glucose, 5 HEPES, and 100 μmol/L (µM) EGTA; pH=7.4, room temperature 22-24° C.). […]
as §2
Raw data and mean ±SEM are given. […] This is measured as current reduction after a steady-state effect has been reached in the presence of drug relative to current amplitude before drug was introduced (control). […]

T1 sequence (P22460 whole entry): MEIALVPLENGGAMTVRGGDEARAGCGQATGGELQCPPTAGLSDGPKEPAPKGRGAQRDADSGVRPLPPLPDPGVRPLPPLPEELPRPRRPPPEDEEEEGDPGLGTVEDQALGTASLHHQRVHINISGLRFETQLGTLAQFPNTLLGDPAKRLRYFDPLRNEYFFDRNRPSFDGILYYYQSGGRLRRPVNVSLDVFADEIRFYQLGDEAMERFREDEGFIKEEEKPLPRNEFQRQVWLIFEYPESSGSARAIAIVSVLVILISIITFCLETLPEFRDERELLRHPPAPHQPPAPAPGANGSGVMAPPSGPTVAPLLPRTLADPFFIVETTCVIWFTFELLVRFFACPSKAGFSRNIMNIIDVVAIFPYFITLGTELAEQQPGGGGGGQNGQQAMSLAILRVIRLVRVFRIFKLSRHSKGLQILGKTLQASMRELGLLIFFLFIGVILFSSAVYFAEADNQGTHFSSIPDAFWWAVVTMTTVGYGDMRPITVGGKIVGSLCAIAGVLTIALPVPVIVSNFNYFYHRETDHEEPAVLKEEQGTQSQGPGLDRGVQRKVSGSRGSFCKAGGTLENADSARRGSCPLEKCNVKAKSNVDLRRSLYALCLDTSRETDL

COc1ccccc1Nc1nc(C)c(C(=O)N[C@H]2CCC[C@@H]2OCc2ccccc2)s1 [Compound 68, 2-(2-methoxy-phenylamino)-4-methyl-thiazole-5-carboxylic acid (1S,2S)-2-(benzyloxycyclopent-1-yl) amide]
Block at 10 μM in %: Kv1.5 (calculated) (Kv1.5; 10 μM, n = 3 cells, derived from subtracting the remaining current from the end of pulse current amplitude): 81.1 ± 3.7%
IC50 (Kv1.5; dose-response analysis, Kv1.5 derived from subtracting the remaining current from the end of pulse current amplitude): 1.4 µM
Block at 10 μM in %: INa (SCN5a) (INa (SCN5a)): 0 ± 0.5%
